From patent publication US20250382290A1, “SALTS OF SOS1 INHIBITORS” (MIRATI THERAPEUTICS, INC., priority 2022, published 2025)

Tested on: pERK (KRas-mediated, SOS1-dependent) in MKN1 or H358 cells
Assay: cells
Conditions: read-out: IC50 (pERK inhibition)
Protocol: Assay day 1, cells were dosed with the compounds of the invention with a 10 μm starting concentration and serially diluted 3× for a total of 9 concentrations. The cells were incubated for approximately 0.5-1 hour with the compounds solubilized in DMSO at 37° C. Cells were immediately fixed by adding 50 μL of 4% formaldehyde to all wells in a fume hood and the plates were incubated for 20 minutes at room temperature. The formaldehyde was discarded from the plates and 150 μL of ice-cold methanol was added to permeabilize the cells for 10 minutes at −20° C. The methanol was discarded from each of the plates and any liquid remaining in the plate by tapping the plate against paper towels. […] The plates were incubated overnight at 4° C. on a shaker.
On Assay day 2, the primary antibody solution was removed. […] The secondary antibody solution as removed and each plate was washed with PBST 3× times. Any liquid remaining was discarded and the plate was imaged using the Licor Odyssey machine according to the manufacturer's instruction, using a set focus length at 3 mm and both 800 nm and 700 nm filters. The GAPDH normalized scan values for each well were divided by the average of vehicle wells to get the % of pERK inhibition. The IC50 values were then calculated with the Graph pad Prism software.

Cc1c(C#N)cccc1[C@@H](C)Nc1nnc(C)c2cnc(N3CCOCC3)cc12 [Example 12-10, (R)-2-methyl-3-(1-((4-methyl-7-morpholinopyrido[3,4-d]pyridazin-1-yl)amino)ethyl)benzonitrile]
IC50: 46 nM
